In ChEMBL document CHEMBL4765450, “The components and activities analysis of a novel anticoagulant candidate dHG-5” (Eur J Med Chem, 2020):
The source made the active and inactive calls. The calls are words filed in the database; no cut-off is given here.

How the values were obtained:
Rattus norvegicus [1] = assay: Antithrombotic activity in thromboplastin and stasis-induced Sprague-Dawley rat deep venous thrombosis model assessed as reduction in venous thrombosis at 3.64 mg/kg, sc administered 1 hr prior to thromboplastin addition for 20 secs followed by establishment of stasis for 20 mins relative to dHG-5; assay type: functional; conditions: time 80.33 min, 1.339 h
[2] = biological target: T1, Coagulation factor XII (Homo sapiens) (UniProt P00748); assay: Inhibition of factor 12a (unknown origin) at IC50 using kallikrein chromogenic substrate preincubated for 1 min followed by chromogenic substrate addition and measured for 2 mins; conditions: time 3.0 min
T1 sequence (whole entry): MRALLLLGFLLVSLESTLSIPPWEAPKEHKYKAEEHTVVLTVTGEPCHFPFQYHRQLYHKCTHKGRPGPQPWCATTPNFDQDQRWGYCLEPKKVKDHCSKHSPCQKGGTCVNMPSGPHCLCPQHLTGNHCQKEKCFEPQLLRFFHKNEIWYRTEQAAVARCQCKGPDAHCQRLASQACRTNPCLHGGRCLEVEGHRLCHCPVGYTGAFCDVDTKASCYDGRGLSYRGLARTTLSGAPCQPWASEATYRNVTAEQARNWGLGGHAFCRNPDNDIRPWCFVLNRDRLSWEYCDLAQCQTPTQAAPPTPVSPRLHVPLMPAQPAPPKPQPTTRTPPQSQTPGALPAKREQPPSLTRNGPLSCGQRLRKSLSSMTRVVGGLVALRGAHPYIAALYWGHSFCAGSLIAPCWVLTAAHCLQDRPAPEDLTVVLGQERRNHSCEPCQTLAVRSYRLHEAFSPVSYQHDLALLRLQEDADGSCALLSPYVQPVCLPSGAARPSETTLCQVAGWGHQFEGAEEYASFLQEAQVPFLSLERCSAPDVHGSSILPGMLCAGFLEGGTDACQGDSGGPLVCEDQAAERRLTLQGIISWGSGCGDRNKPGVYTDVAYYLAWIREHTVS

[3] = biological target: Coagulation factor XI (Homo sapiens) (UniProt P03951); assay: Inhibition of factor 11a (unknown origin) at IC50 using S-2366 as substrate preincubated for 1 min followed by chromogenic substrate addition and measured for 2 mins; conditions: time 3.0 min
[4] = biological target: Coagulation factor XI (Homo sapiens) (UniProt P03951); assay: Inhibition of factor 11a (unknown origin) at IC90 using S-2366 as substrate preincubated for 1 min followed by chromogenic substrate addition and measured for 2 mins in presence of AT-III; conditions: time 3.0 min
[5] = biological target: Prothrombin (Homo sapiens) (UniProt P00734); assay: Inhibition of factor 2a (unknown origin) at IC50 preincubated for 1 min followed by chromogenic substrate addition and measured for 2 mins in presence of AT-III; conditions: time 3.0 min
Coagulation factor IX [6] = biological target: T2, Coagulation factor IX (Homo sapiens, UniProt P00740); assay: Inhibition of factor 9a (unknown origin) binding to immobilized biotinylated oHG-11 assessed as activity potency of oligosaccharides multiplied by the percentage of oligosaccharides in dHG-5 by biolayer interferometry relative to dHG-5
Plasma [7] = assay: Anticoagulation activity in human plasma assessed as drug level causing 20 times doubling of APTT by measuring activity potency of oligosaccharides multiplied by the percentage of oligosaccharides in dHG-5 preincubated for 2 mins followed by APTT reagent and measured after 3 mins by coagulometric method relative to dHG-5; assay type: functional; conditions: time 5 min
Rattus norvegicus [8] = assay: Antithrombotic activity in thromboplastin and stasis-induced Sprague-Dawley rat deep venous thrombosis model assessed as reduction in venous thrombosis by measuring activity potency of oligosaccharides multiplied by the percentage of oligosaccharides in dHG-5 at 3.64 mg/kg, sc administered 1 hr prior to thromboplastin addition for 20 secs followed by establishment of stasis for 20 mins relative …; assay type: functional; conditions: time 80.33 min, 1.339 h
[9] = biological target: Coagulation factor X (Homo sapiens) (UniProt P00742); assay: Inhibition of factor 10a (unknown origin) at IC50 preincubated for 1 min followed by chromogenic substrate addition and measured for 2 mins in presence of AT-III; conditions: time 3.0 min
[10] = biological target: Prothrombin (Homo sapiens) (UniProt P00734); assay: Inhibition of factor 2a (unknown origin) at IC50 preincubated for 1 min followed by chromogenic substrate addition and measured for 2 mins; conditions: time 3.0 min
[11] = biological target: Prothrombin (Homo sapiens) (UniProt P00734); assay: Inhibition of factor 2a (unknown origin) at IC90 preincubated for 1 min followed by chromogenic substrate addition and measured for 2 mins in presence of AT-III; conditions: time 3.0 min
[12] = biological target: Coagulation factor XI (Homo sapiens) (UniProt P03951); assay: Inhibition of factor 11a (unknown origin) at IC50 using S-2366 as substrate preincubated for 1 min followed by chromogenic substrate addition and measured for 2 mins in presence of AT-III; conditions: time 3.0 min
Coagulation factor IX [13] = biological target: T2, Coagulation factor IX; assay: Inhibition of factor 9a (unknown origin) binding to immobilized biotinylated oHG-11 by biolayer interferometry relative to dHG-5
[14] = biological target: T3, Coagulation factor VII (Homo sapiens) (UniProt P08709); assay: Inhibition of factor 7a (unknown origin) at IC50 using pefachrome factor VIIa as substrate preincubated for 1 min followed by chromogenic substrate addition and measured for 2 mins; conditions: time 3.0 min
T3 sequence (whole entry): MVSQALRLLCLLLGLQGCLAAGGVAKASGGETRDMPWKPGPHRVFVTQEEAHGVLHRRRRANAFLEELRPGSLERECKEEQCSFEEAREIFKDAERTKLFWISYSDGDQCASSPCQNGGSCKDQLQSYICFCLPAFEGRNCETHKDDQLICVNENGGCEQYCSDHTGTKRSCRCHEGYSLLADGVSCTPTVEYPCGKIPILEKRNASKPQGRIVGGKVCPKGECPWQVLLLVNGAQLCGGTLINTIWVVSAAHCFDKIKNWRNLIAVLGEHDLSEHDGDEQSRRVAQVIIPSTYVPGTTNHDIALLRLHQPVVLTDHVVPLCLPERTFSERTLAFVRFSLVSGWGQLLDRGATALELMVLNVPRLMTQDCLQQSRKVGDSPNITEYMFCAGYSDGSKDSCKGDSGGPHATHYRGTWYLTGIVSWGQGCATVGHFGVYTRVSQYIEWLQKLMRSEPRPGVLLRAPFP

[15] = biological target: T4, Coagulation factor IX/VIII (Homo sapiens) (UniProt P00740+P00451); assay: Inhibition of human citrated plasma iXase (factor 8a-factor 9a complex) assessed as activity potency of oligosaccharides multiplied by the percentage of oligosaccharides in dHG-5 preincubated for 2 mins followed by factor 10 addition and measured after 1 min by FXa chromogenic substrate SXa-11 based assay relative to dHG-5; assay type: protein-complex assay; conditions: time 3.0 min
[16] = biological target: T4, Coagulation factor IX/VIII (Homo sapiens); assay: Inhibition of human citrated plasma iXase (factor 8a-factor 9a complex) preincubated for 2 mins followed by factor 10 addition and measured after 1 min by FXa chromogenic substrate SXa-11 based assay relative to dHG-5; assay type: protein-complex assay; conditions: time 3.0 min
Plasma [17] = assay: Anticoagulation activity in human plasma assessed as drug level causing 20 times doubling of APTT preincubated for 2 mins followed by APTT reagent and measured after 3 mins by coagulometric method relative to dHG-5; assay type: functional; conditions: time 5 min
[18] = biological target: T3, Coagulation factor VII (Homo sapiens); assay: Inhibition of factor 7a (unknown origin) at IC50 using pefachrome factor VIIa as substrate preincubated for 1 min followed by chromogenic substrate addition and measured for 2 mins in presence of AT-III; conditions: time 3.0 min
[19] = biological target: T1, Coagulation factor XII (Homo sapiens); assay: Inhibition of factor 12a (unknown origin) at IC50 using kallikrein chromogenic substrate preincubated for 1 min followed by chromogenic substrate addition and measured for 2 mins in presence of AT-III; conditions: time 3.0 min
[20] = biological target: Coagulation factor X (Homo sapiens) (UniProt P00742); assay: Inhibition of factor 10a (unknown origin) at IC50 preincubated for 1 min followed by chromogenic substrate addition and measured for 2 mins; conditions: time 3.0 min
[21] = biological target: Coagulation factor X (Homo sapiens) (UniProt P00742); assay: Inhibition of factor 10a (unknown origin) at IC90 preincubated for 1 min followed by chromogenic substrate addition and measured for 2 mins in presence of AT-III relative to control; conditions: time 3.0 min

Coagulation factor X (Homo sapiens), sequence (P00742 41-179 limits assumed): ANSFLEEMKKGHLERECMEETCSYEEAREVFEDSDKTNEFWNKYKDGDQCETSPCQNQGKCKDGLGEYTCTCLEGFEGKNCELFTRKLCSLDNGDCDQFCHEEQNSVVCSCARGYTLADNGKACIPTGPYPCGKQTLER
Coagulation factor X (Homo sapiens), sequence (P00742 235-488 limits assumed): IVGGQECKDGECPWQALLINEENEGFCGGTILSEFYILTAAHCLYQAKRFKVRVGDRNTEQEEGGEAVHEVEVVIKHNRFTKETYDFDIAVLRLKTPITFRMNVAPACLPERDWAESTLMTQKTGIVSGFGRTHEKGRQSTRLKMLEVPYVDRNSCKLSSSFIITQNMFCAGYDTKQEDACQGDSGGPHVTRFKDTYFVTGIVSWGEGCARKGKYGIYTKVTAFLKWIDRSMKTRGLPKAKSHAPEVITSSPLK
Coagulation factor XI (Homo sapiens), sequence (P03951 19-387 limits assumed): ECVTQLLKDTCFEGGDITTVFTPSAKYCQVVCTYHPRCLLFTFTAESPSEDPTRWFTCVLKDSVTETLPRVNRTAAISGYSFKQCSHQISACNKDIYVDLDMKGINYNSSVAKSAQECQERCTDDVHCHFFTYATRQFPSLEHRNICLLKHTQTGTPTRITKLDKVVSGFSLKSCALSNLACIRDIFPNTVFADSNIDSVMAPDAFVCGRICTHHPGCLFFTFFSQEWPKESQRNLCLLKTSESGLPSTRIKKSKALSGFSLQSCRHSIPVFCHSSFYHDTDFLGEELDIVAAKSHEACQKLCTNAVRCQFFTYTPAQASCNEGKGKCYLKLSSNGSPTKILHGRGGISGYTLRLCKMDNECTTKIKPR
Coagulation factor XI (Homo sapiens), sequence (P03951 388-625 limits assumed): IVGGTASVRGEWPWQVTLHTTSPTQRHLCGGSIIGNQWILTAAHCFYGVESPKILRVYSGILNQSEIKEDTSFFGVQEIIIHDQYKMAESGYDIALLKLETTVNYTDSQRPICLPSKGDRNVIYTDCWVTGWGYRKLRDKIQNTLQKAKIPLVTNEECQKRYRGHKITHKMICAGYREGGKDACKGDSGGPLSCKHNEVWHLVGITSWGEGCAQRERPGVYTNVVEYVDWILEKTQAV
T2 sequence (P00740 47-191 limits assumed): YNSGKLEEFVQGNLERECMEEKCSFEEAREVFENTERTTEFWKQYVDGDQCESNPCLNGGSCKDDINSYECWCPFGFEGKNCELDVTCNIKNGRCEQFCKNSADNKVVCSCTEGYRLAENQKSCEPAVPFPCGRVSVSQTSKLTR
T2 sequence (P00740 227-461 limits assumed): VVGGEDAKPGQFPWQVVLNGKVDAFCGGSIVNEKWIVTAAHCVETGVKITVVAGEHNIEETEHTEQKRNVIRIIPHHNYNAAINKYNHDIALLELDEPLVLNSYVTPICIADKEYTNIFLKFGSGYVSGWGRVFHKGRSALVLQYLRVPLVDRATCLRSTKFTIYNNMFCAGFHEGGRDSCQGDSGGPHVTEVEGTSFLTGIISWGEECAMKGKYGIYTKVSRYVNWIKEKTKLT

inhibition [2]: inactive
inhibition [3]: inactive
inhibition [4]: Active
inhibition [5]: inactive
Ratio (Coagulation factor IX [6]): 3.66 U
inhibition [9]: inactive
inhibition [10]: inactive
inhibition [11]: Active
inhibition [12]: inactive
Ratio (Coagulation factor IX [13]): 20.9 U
inhibition (active/not active) [14]: inactive
Ratio [15]: 5.02 U
Ratio [16]: 28.6 U
inhibition [18]: inactive
inhibition [19]: inactive
inhibition [20]: inactive
inhibition [21]: 14.2%
Structure (SMILES): CC(=O)N[C@H]1[C@H](O[C@@H]([C@H](O[C@@H]2O[C@@H](C)[C@@H](OS(=O)(=O)[O-])[C@@H](O)[C@@H]2OS(=O)(=O)O)[C@@H](O)CO)[C@H](O)C(=O)[O-])O[C@H](COS(=O)(=O)[O-])[C@H](OS(=O)(=O)[O-])[C@@H]1O[C@@H]1O[C@H](C(=O)[O-])[C@@H](O[C@@H]2O[C@H](COS(=O)(=O)[O-])[C@H](OS(=O)(=O)[O-])[C@H](O[C@@H]3O[C@H](C(=O)[O-])[C@@H](O[C@@H]4O[C@H](COS(=O)(=O)[O-])[C@H](OS(=O)(=O)[O-])[C@H](O[C@@H]5OC(C(=O)[O-])=C[C@H](O[C@@H]6O[C@@H](C)[C@@H](OS(=O)(=O)[O-])[C@@H](OS(=O)(=O)O)[C@@H]6O)[C@H]5O)[C@H]4NC(C)=O)[C@H](O[C@@H]4O[C@@H](C)[C@@H](OS(=O)(=O)[O-])[C@@H](O)[C@@H]4OS(=O)(=O)O)[C@H]3O)[C@H]2NC(C)=O)[C@H](O[C@@H]2O[C@@H](C)[C@@H](OS(=O)(=O)[O-])[C@@H](O)[C@@H]2OS(=O)(=O)O)[C@H]1O.[Na+].[Na+].[Na+].[Na+].[Na+].[Na+].[Na+].[Na+].[Na+].[Na+].[Na+].[Na+].[Na+].[Na+]
Ratio (Rattus norvegicus [1]): 48.6 U
Ratio (Plasma [7]): 4.92 U
Ratio (Rattus norvegicus [8]): 8.55 U
Ratio (Plasma [17]): 28.01 U
